Measured values as given in PubChem BioAssay AID1963980 (Molecular Pharmacology Branch, DTP, NCI, 2024).
Values belong to the compound of their own block, whether it stands above or below them.

Test system: 475296-252-R-J1-PDC spheroid viability
Test: Anticancer human tumor 475296-252-R-J1-PDC patient-derived rectal carcinoma cell line growth inhibition [PI3K]
Conditions: spheroids with HUVEC and MSC; for IC50: curve of first compound; for viability, T/C: stronger effect = lower value
How it was run: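 Viability of mixed-cell spheroids was determined after exposure to pairwise combinations, one partner being inavolisib, alpelisib, duvelisib or copanlisib. Highest tested concentration matched clinical Cmax where known and 10 microM where not, descending in half-log steps.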

[1] = second compound 0.0316 µM, first compound 0.000316 µM
[2] = second compound 0.0316 µM, first compound 0.001 µM
[3] = second compound 0.0316 µM, first compound 0.00316 µM
[4] = second compound 0.0316 µM, first compound 0.01 µM
[5] = second compound 0.0316 µM, first compound 0.0316 µM
[6] = second compound 0.0316 µM, first compound 0.1 µM
[7] = second compound 0.1 µM, first compound 0.000316 µM
[8] = second compound 0.1 µM, first compound 0.001 µM
[9] = second compound 0.1 µM, first compound 0.00316 µM
[10] = second compound 0.1 µM, first compound 0.01 µM
[11] = second compound 0.1 µM, first compound 0.0316 µM
[12] = second compound 0.1 µM, first compound 0.1 µM
[13] = second compound 0.316 µM, first compound 0.000316 µM
[14] = second compound 0.316 µM, first compound 0.001 µM
[15] = second compound 0.316 µM, first compound 0.00316 µM
[16] = second compound 0.316 µM, first compound 0.01 µM
[17] = second compound 0.316 µM, first compound 0.0316 µM
[18] = second compound 0.316 µM, first compound 0.1 µM
[19] = second compound 1 µM, first compound 0.000316 µM
[20] = second compound 1 µM, first compound 0.001 µM
[21] = second compound 1 µM, first compound 0.00316 µM
[22] = second compound 1 µM, first compound 0.01 µM
[23] = second compound 1 µM, first compound 0.0316 µM
[24] = second compound 1 µM, first compound 0.1 µM
[25] = second compound 3.16 µM, first compound 0.000316 µM
[26] = second compound 3.16 µM, first compound 0.001 µM
[27] = second compound 3.16 µM, first compound 0.00316 µM
[28] = second compound 3.16 µM, first compound 0.01 µM
[29] = second compound 3.16 µM, first compound 0.0316 µM
[30] = second compound 3.16 µM, first compound 0.1 µM
[31] = second compound 10 µM, first compound 0.000316 µM
[32] = second compound 10 µM, first compound 0.001 µM
[33] = second compound 10 µM, first compound 0.00316 µM
[34] = second compound 10 µM, first compound 0.01 µM
[35] = second compound 10 µM, first compound 0.0316 µM
[36] = second compound 10 µM, first compound 0.1 µM
[37] = second compound 0.0316 µM, first compound 0.316 µM
[38] = second compound 0.0316 µM, first compound 1 µM
[39] = second compound 0.0316 µM, first compound 3.16 µM
[40] = second compound 0.0316 µM, first compound 10 µM
[41] = second compound 0.1 µM, first compound 0.316 µM
[42] = second compound 0.1 µM, first compound 1 µM
[43] = second compound 0.1 µM, first compound 3.16 µM
[44] = second compound 0.1 µM, first compound 10 µM
[45] = second compound 0.316 µM, first compound 0.316 µM
[46] = second compound 0.316 µM, first compound 1 µM
[47] = second compound 0.316 µM, first compound 3.16 µM
[48] = second compound 0.316 µM, first compound 10 µM
[49] = second compound 1 µM, first compound 0.316 µM
[50] = second compound 1 µM, first compound 1 µM
[51] = second compound 1 µM, first compound 3.16 µM
[52] = second compound 1 µM, first compound 10 µM
[53] = second compound 3.16 µM, first compound 0.316 µM
[54] = second compound 3.16 µM, first compound 1 µM
[55] = second compound 3.16 µM, first compound 3.16 µM
[56] = second compound 3.16 µM, first compound 10 µM
[57] = second compound 10 µM, first compound 0.316 µM
[58] = second compound 10 µM, first compound 1 µM
[59] = second compound 10 µM, first compound 3.16 µM
[60] = second compound 10 µM, first compound 10 µM
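Further: spheroids exposed to agents for seven days before readout.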

IC50 (second compound 0.0316 µM): > 0.1 µM
IC50 (second compound 0.1 µM): > 0.1 µM
IC50 (second compound 0.316 µM): > 0.1 µM
IC50 (second compound 1 µM): > 0.1 µM
IC50 (second compound 3.16 µM): > 0.1 µM
IC50 (second compound 10 µM): > 0.1 µM
Compound: CC(=O)c1c(C)c2cnc(Nc3ccc(N4CCNCC4)cn3)nc2n(C2CCCC2)c1=O + Cc1nc(NC(=O)N2CCCC2C(N)=O)sc1-c1ccnc(C(C)(C)C(F)(F)F)c1
viability, T/C [1]: 99.6%
viability, T/C [2]: 96.9%
viability, T/C [3]: 101%
viability, T/C [4]: 97.4%
viability, T/C [5]: 117%
viability, T/C [6]: 118%
viability, T/C [7]: 106%
viability, T/C [8]: 94.4%
viability, T/C [9]: 107%
viability, T/C [10]: 91.3%
viability, T/C [11]: 103%
viability, T/C [12]: 108%
viability, T/C [13]: 92%
viability, T/C [14]: 114%
viability, T/C [15]: 94.1%
viability, T/C [16]: 101%
viability, T/C [17]: 110%
viability, T/C [18]: 101%
viability, T/C [19]: 101%
viability, T/C [20]: 95.5%
viability, T/C [21]: 100%
viability, T/C [22]: 112%
viability, T/C [23]: 104%
viability, T/C [24]: 102%
viability, T/C [25]: 90.4%
viability, T/C [26]: 102%
viability, T/C [27]: 96.8%
viability, T/C [28]: 99%
viability, T/C [29]: 99.8%
viability, T/C [30]: 98.9%
viability, T/C [31]: 98%
viability, T/C [32]: 92.7%
viability, T/C [33]: 96.9%
viability, T/C [34]: 98.9%
viability, T/C [35]: 98.8%
viability, T/C [36]: 90.2%

IC50 (second compound 0.0316 µM): > 0.1 µM
IC50 (second compound 0.1 µM): > 0.1 µM
IC50 (second compound 0.316 µM): > 0.1 µM
IC50 (second compound 1 µM): > 0.1 µM
IC50 (second compound 3.16 µM): > 0.1 µM
IC50 (second compound 10 µM): > 0.1 µM
Compound: CC(C)n1nc(-c2ccc3oc(N)nc3c2)c2c(N)ncnc21 + Cc1nc(NC(=O)N2CCCC2C(N)=O)sc1-c1ccnc(C(C)(C)C(F)(F)F)c1
viability, T/C [1]: 93.5%
viability, T/C [2]: 95.3%
viability, T/C [3]: 93.1%
viability, T/C [4]: 88.4%
viability, T/C [5]: 83.9%
viability, T/C [6]: 64.1%
viability, T/C [7]: 92.1%
viability, T/C [8]: 98%
viability, T/C [9]: 95.2%
viability, T/C [10]: 84.5%
viability, T/C [11]: 76.8%
viability, T/C [12]: 62%
viability, T/C [13]: 97.1%
viability, T/C [14]: 95.4%
viability, T/C [15]: 85%
viability, T/C [16]: 92.8%
viability, T/C [17]: 85.9%
viability, T/C [18]: 59.9%
viability, T/C [19]: 89.8%
viability, T/C [20]: 106%
viability, T/C [21]: 87.3%
viability, T/C [22]: 91.9%
viability, T/C [23]: 70.2%
viability, T/C [24]: 57.1%
viability, T/C [25]: 83.4%
viability, T/C [26]: 86%
viability, T/C [27]: 88.4%
viability, T/C [28]: 77.5%
viability, T/C [29]: 82.3%
viability, T/C [30]: 54.3%
viability, T/C [31]: 91.1%
viability, T/C [32]: 85.1%
viability, T/C [33]: 83.8%
viability, T/C [34]: 89.2%
viability, T/C [35]: 86.5%
viability, T/C [36]: 54.4%

IC50 (second compound 0.0316 µM): > 10 µM
IC50 (second compound 0.1 µM): > 10 µM
IC50 (second compound 0.316 µM): > 10 µM
IC50 (second compound 1 µM): > 10 µM
IC50 (second compound 3.16 µM): > 10 µM
IC50 (second compound 10 µM): > 10 µM
Compound: CC1(C)CCC(CN2CCN(c3ccc(C(=O)NS(=O)(=O)c4ccc(NCC5CCOCC5)c([N+](=O)[O-])c4)c(Oc4cnc5[nH]ccc5c4)c3)CC2)=C(c2ccc(Cl)cc2)C1 + Cc1nc(NC(=O)N2CCCC2C(N)=O)sc1-c1ccnc(C(C)(C)C(F)(F)F)c1
viability, T/C [5]: 107%
viability, T/C [6]: 90.1%
viability, T/C [37]: 95.3%
viability, T/C [38]: 87.2%
viability, T/C [39]: 95.7%
viability, T/C [40]: 62.5%
viability, T/C [11]: 99.3%
viability, T/C [12]: 85.6%
viability, T/C [41]: 98.9%
viability, T/C [42]: 93%
viability, T/C [43]: 94.2%
viability, T/C [44]: 63.5%
viability, T/C [17]: 99.7%
viability, T/C [18]: 97.5%
viability, T/C [45]: 89.9%
viability, T/C [46]: 84.5%
viability, T/C [47]: 84.2%
viability, T/C [48]: 69%
viability, T/C [23]: 90.8%
viability, T/C [24]: 93.2%
viability, T/C [49]: 97.1%
viability, T/C [50]: 93.3%
viability, T/C [51]: 88.3%
viability, T/C [52]: 73.3%
viability, T/C [29]: 83.4%
viability, T/C [30]: 82%
viability, T/C [53]: 95.5%
viability, T/C [54]: 90.5%
viability, T/C [55]: 87.5%
viability, T/C [56]: 63.3%
viability, T/C [35]: 86.5%
viability, T/C [36]: 87.6%
viability, T/C [57]: 89.4%
viability, T/C [58]: 89%
viability, T/C [59]: 87.3%
viability, T/C [60]: 56.7%

IC50 (second compound 0.0316 µM): > 10 µM
IC50 (second compound 0.1 µM): > 10 µM
IC50 (second compound 0.316 µM): > 10 µM
IC50 (second compound 1 µM): > 10 µM
IC50 (second compound 3.16 µM): > 10 µM
IC50 (second compound 10 µM): > 10 µM
Compound: CCCS(=O)(=O)Nc1ccc(F)c(C(=O)c2c[nH]c3ncc(-c4ccc(Cl)cc4)cc23)c1F + Cc1nc(NC(=O)N2CCCC2C(N)=O)sc1-c1ccnc(C(C)(C)C(F)(F)F)c1
viability, T/C [5]: 88.8%
viability, T/C [6]: 95.5%
viability, T/C [37]: 92.2%
viability, T/C [38]: 91.5%
viability, T/C [39]: 80.5%
viability, T/C [40]: 94%
viability, T/C [11]: 106%
viability, T/C [12]: 94.6%
viability, T/C [41]: 88%
viability, T/C [42]: 81.2%
viability, T/C [43]: 98.7%
viability, T/C [44]: 100%
viability, T/C [17]: 85%
viability, T/C [18]: 94.8%
viability, T/C [45]: 98.2%
viability, T/C [46]: 92.6%
viability, T/C [47]: 91.1%
viability, T/C [48]: 96.3%
viability, T/C [23]: 83.1%
viability, T/C [24]: 97.3%
viability, T/C [49]: 88.2%
viability, T/C [50]: 89.8%
viability, T/C [51]: 89.3%
viability, T/C [52]: 82%
viability, T/C [29]: 83.6%
viability, T/C [30]: 92.8%
viability, T/C [53]: 87.6%
viability, T/C [54]: 92%
viability, T/C [55]: 89.9%
viability, T/C [56]: 73%
viability, T/C [35]: 80.4%
viability, T/C [36]: 82%
viability, T/C [57]: 82.1%
viability, T/C [58]: 80.4%
viability, T/C [59]: 76.3%
viability, T/C [60]: 66.1%
